# Test results taken from patent US9301951B2 (Ardelyx, Inc., priority 2010, dated 2016).
# Biological target: T1, rat NaP2b (SLC34A2) (Rattus norvegicus, UniProt Q9JJ09)
# T1 construct: host or cells: HEK293
# T1 sequence (Q9JJ09 1-695): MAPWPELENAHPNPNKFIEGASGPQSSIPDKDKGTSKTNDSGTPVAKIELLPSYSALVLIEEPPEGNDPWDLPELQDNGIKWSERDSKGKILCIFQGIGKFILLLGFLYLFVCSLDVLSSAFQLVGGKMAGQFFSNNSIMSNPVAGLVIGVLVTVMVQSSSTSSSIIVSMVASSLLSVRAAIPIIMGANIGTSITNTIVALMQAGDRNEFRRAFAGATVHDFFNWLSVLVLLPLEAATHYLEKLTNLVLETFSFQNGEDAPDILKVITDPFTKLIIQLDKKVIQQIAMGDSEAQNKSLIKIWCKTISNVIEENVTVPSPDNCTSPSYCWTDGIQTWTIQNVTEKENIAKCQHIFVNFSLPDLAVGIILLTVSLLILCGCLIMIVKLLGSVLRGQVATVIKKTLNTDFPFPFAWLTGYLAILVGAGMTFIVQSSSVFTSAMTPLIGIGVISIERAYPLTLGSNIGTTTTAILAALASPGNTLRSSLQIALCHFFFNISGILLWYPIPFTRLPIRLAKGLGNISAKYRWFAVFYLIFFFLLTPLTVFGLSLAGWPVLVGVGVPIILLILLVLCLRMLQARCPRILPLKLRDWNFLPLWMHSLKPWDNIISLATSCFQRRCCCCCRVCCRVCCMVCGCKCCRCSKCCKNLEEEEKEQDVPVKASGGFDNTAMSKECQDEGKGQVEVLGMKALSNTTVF
# Assay: Inhibition of NaP2b-mediated Pi (33P) uptake in transfected HEK293 cells, rat NaP2b
# Assay type: cell-based
# Details: HEK293 cells transfected with rat NaP2b, 100 uM phosphate, 0.1 nM to 30 uM, read-out: pIC50 range for rat Nap2b (converted)
# Description: HEK293 cells were obtained from the American Type Culture collection and propagated per their instructions. Expression clones for rat and human NaP2b (SLC34A2) were obtained from Open Biosystems (Catalog numbers MRN1768-9510282, and MHS1010-99823026, respectively). The sequence of the human protein was mutated to insert a threonine after residue 37, and to introduce a N39D mutation.
# Cells were seeded into 96-well plates at 25,000 cells/well and cultured overnight. Lipofectamine 2000 (Invitrogen) was used to introduce the NaP2b cDNA, and the cells were allowed to approach confluence during a second overnight incubation. […] Cells were then overlayed with either choline uptake buffer or sodium uptake buffer (14 mM Tris, 137 mM sodium chloride, 5.4 mM KCl, 2.8 mM CaCl2, 1.2 mM MgSO4, 100 uM KH2PO4, PiT-silencing agent, 1 mg/mL Bovine Serum Albumin, pH 7.4) containing 6-9 uCi/mL ^33P orthophosphoric acid (Perkin Elmer) and test compound. Each compound was tested at twelve concentrations ranging from 0.1 nM to 30 uM. Assays were run in duplicate.
# Cells were lysed by addition of 20 μL 0.1% Tween 80 followed by 100 μL scintillation fluid, and counted using a TopCount (Perkin Elmer).
# pIC50 (the negative log of the […]) values of the test compounds were calculated using GraphPad Prism.
row,IC50 [µM],SMILES
1,1 to 7.94,"CC(=O)N1CCN(Cc2cccc(C(=O)Nc3ccc(N4CCCCC4)cc3-c3cc(C(=O)NCc4cccc(C(F)(F)F)c4)ccn3)c2)CC1 [Example 50, 2-(2-(3-((4-Acetylpiperazin-1-yl)methyl)benzamido)-5-(piperidin-1-yl)phenyl)-N-(3-(trifluoromethyl)benzyl)isonicotinamide]"
2,10 to 31.6,O=C(O)CCSCc1cccc(C(=O)Nc2ccc(OCC(F)(F)F)cc2-c2cc(C(=O)NCc3cccc(C(F)(F)F)c3)ccn2)c1 [Example 32]
3,1 to 7.94,"CCCN(CCC)c1ccc(NC(=O)c2cccc(CSCCC(=O)O)c2)c(-c2cc(C(=O)NCc3cccc(C(F)(F)F)c3)ccn2)c1 [Example 19, 3-((3-((4-(Dipropylamino)-2-(4-((3-(trifluoromethyl)benzyl)carbamoyl)pyridin-2-yl)phenyl)carbamoyl)benzyl)thio)propanoic acid]"
4,1 to 7.94,"COCCN(CCOC)c1ccc(NC(=O)c2cccc(CSCCC(=O)O)c2)c(-c2cc(C(=O)NCc3cccc(C(F)(F)F)c3)ccn2)c1 [Example 17, 3-(3-((2-(4-((3-(trifluoromethyl)benzyl)carbamoyl)pyridin-2-yl)-4-(bis(2-methoxyethyl)amino)phenyl)carbamoyl)benzylthio)propanoic acid]"
5,1 to 7.94,"COc1ccc(NC(=O)c2cccc(CSCCC(=O)O)c2)c(-c2cc(C(=O)NCc3cccc(C(F)(F)F)c3)ccn2)c1 [Example 30, 3-((3-((4-Methoxy-2-(4-((3-(trifluoromethyl)benzyl)carbamoyl)pyridin-2-yl)phenyl)carbamoyl)benzyl)thio)propanoic acid]"
6,10 to 31.6,"O=C(O)CCSCc1cccc(C(=O)Nc2ccc(N3CCCCC3)cc2-c2cc(C(O)CCc3ccccc3)ccn2)c1 (stereo not shown) [Example 6.1, 3-((3-((2-(4-(1-hydroxy-3-phenylpropyl)pyridin-2-yl)-4-(piperidin-1-yl)phenyl)carbamoyl)benzyl)thio)propanoic acid]"
7,1 to 7.94,O=C(O)CCSCc1cccc(C(=O)Nc2ccc(N3CCCCC3)cc2-c2cc(C(=O)NCc3ccccc3)ccn2)c1 [Example 1.4]
8,1 to 7.94,"CC(=O)NC1CCN(Cc2cccc(C(=O)Nc3ccc(N4CCCCC4)cc3-c3cc(C(=O)NCc4cccc(C(F)(F)F)c4)ccn3)c2)C1 (stereo in doubt) [Example 48, (S)-2-(2-(3-((3-Acetamidopyrrolidin-1-yl)methyl)benzamido)-5-(piperidin-1-yl)phenyl)-N-(3-(trifluoromethyl)benzyl)isonicotinamide]"
9,1 to 7.94,CN(CCN1CCN(S(C)(=O)=O)CC1)Cc1cccc(C(=O)Nc2ccc(N3CCCCC3)cc2-c2cc(C(=O)NCc3cccc(C(F)(F)F)c3)ccn2)c1 [Example 39]
10,10 to 31.6,"CC(=O)N1CCN(CCN(C)Cc2cccc(C(=O)Nc3ccc(N4CCCCC4)cc3-c3cc(C(=O)NCc4ccccc4)ccn3)c2)CC1 [Example 41, 2-(2-(3-(((2-(4-Acetylpiperazin-1-yl)ethyl)(methyl)amino)methyl)benzamido)-5-(piperidin-1-yl)phenyl)-N-benzylisonicotinamide]"
11,10 to 31.6,"COC1CCN(c2ccc(NC(=O)c3cccc(CSCCC(=O)O)c3)c(-c3cc(C(=O)NCc4cccc(C(F)(F)F)c4)ccn3)c2)CC1 [Example 31, 3-((3-((4-(4-Methoxypiperidin-1-yl)-2-(4-((3-(trifluoromethyl)benzyl)carbamoyl)-pyridin-2-yl)phenyl)carbamoyl)benzyl)thio)propanoic acid]"
12,1 to 7.94,"CCOc1ccc(NC(=O)c2cccc(CSCCC(=O)O)c2)c(-c2cc(C(=O)NCc3cccc(C(F)(F)F)c3)ccn2)c1 [Example 29, 3-((3-((4-Ethoxy-2-(4-((3-(trifluoromethyl)benzyl)carbamoyl)pyridin-2-yl)phenyl)carbamoyl)benzyl)thio)propanoic acid]"
13,1 to 7.94,"CN(Cc1cccc(C(=O)Nc2ccc(N3CCCCC3)cc2-c2cc(C(=O)NCc3cccc(C(F)(F)F)c3)ccn2)n1)C(=O)CN1CCOCC1 [Example 53, 6-((N-Methyl-2-morpholinoacetamido)methyl)-N-(4-(piperidin-1-yl)-2-(4-((3-(trifluoromethyl)benzyl)carbamoyl)pyridin-2-yl)phenyl)picolinamide]"
14,10 to 31.6,"O=C(O)CCSCc1cccc(C(=O)Nc2ccccc2-c2cc(C(=O)NCc3cccc(C(F)(F)F)c3)ccn2)c1 [Example 22, 3-((3-((2-(4-((3-(Trifluoromethyl)benzyl)carbamoyl)pyridin-2-yl)phenyl)carbamoyl)benzyl)thio)propanoic acid]"
15,1 to 7.94,"O=C(O)CCSCc1cccc(C(=O)Nc2ccc(F)cc2-c2cc(C(=O)NCc3cccc(C(F)(F)F)c3)ccn2)c1 [Example 18, 3-((3-((4-Fluoro-2-(4-((3-(trifluoromethyl)benzyl)carbamoyl)pyridin-2-yl)phenyl)carbamoyl)benzyl)thio)propanoic acid]"
16,1 to 7.94,"O=C(O)CCSCc1cccc(C(=O)Nc2ccc(N3CCSCC3)cc2-c2cc(C(=O)NCc3cccc(C(F)(F)F)c3)ccn2)c1 [Example 27, 3-((3-((4-Thiomorpholino-2-(4-((3-(trifluoromethyl)benzyl)carbamoyl)pyridin-2-yl)phenyl)carbamoyl)benzyl)thio)propanoic acid]"
17,10 to 31.6,CC(C)COc1ccc(NC(=O)c2cccc(CSCCC(=O)O)c2)c(-c2cc(C(=O)NCc3cccc(C(F)(F)F)c3)ccn2)c1 [Example 33]
18,1 to 7.94,"O=C(O)CCSCc1cccc(C(=O)Nc2ccc(N3CC4CCCC4C3)cc2-c2cc(C(=O)NCc3cccc(C(F)(F)F)c3)ccn2)c1 (stereo not shown) [Example 28, 3-((3-((4-(Hexahydrocyclopenta[c]pyrrol-2(1H)-yl)-2-(4-((3-(trifluoromethyl)-benzyl)carbamoyl)pyridin-2-yl)phenyl)carbamoyl)benzyl)thio)propanoic acid]"
19,1 to 7.94,"CN(CCN1CCOCC1)C(=O)c1cccc(C(=O)Nc2ccc(N3CCCCC3)cc2-c2cc(-c3cn(Cc4ccccc4)nn3)ccn2)c1 [Example 24, N1-(2-(4-(1-Benzyl-1H-1,2,3-triazol-4-yl)pyridin-2-yl)-4-(piperidin-1-yl)phenyl)-N3-methyl-N3-(2-morpholinoethyl)isophthalamide]"
20,1 to 7.94,"CC(C)Oc1ccc(NC(=O)c2cccc(CSCCC(=O)O)c2)c(-c2cc(C(=O)NCc3cccc(C(F)(F)F)c3)ccn2)c1 [Example 15, 3-((3-((4-Isopropoxy-2-(4-((3-(trifluoromethyl)benzyl)carbamoyl)pyridin-2-yl)phenyl)carbamoyl)benzyl)thio)propanoic acid]"
21,10 to 31.6,O=C(O)CCSCc1cccc(C(=O)Nc2ccc(N3CCCCC3)cc2-c2cc(C(=O)N3CCCC3c3ccccc3)ccn2)c1 (stereo not shown) [Example 1.9]
22,1 to 7.94,"O=C(O)CCSCc1cccc(C(=O)Nc2ccc(Oc3ccccc3)cc2-c2cc(C(=O)NCc3cccc(C(F)(F)F)c3)ccn2)c1 [Example 36, 3-((3-((4-Phenoxy-2-(4-((3-(trifluoromethyl)benzyl)carbamoyl)pyridin-2-yl)phenyl)carbamoyl)benzyl)thio)propanoic acid]"
23,1 to 7.94,"CCN(CC)c1ccc(NC(=O)c2cccc(C(=O)N(C)CCN(C)CCOCCOCCOCCNC(=O)C(C)(C)C)c2)c(-c2cc(C(=O)NCc3cccc(C(F)(F)F)c3)ccn2)c1 [Example 346, N^1-(4-(diethylamino)-2-(4-(3-(trifluoromethyl)benzylcarbamoyl)pyridin-2-yl)phenyl)-N^3-methyl-N^3-(3,17,17-trimethyl-16-oxo-6,9,12-trioxa-3,15-diazaoctadecyl)isophthalamide]"
24,1 to 7.94,"COCCNC(=O)CCN(C)Cc1cccc(C(=O)Nc2ccc(N3CCCCC3)cc2-c2cc(C(=O)NCc3cccc(C(F)(F)F)c3)ccn2)c1 [Example 51, 2-(2-(3-(((3-((2-Methoxyethyl)amino)-3-oxopropyl)(methyl)amino)methyl)benzamido)-5-(piperidin-1-yl)phenyl)-N-(3-(trifluoromethyl)benzyl)isonicotinamide]"
25,10 to 31.6,"CC(=O)NC1CCN(Cc2cccc(C(=O)Nc3ccc(N4CCCCC4)cc3-c3cc(C(=O)NCc4cccc(C(F)(F)F)c4)ccn3)c2)CC1 [Example 46, 2-(2-(3-((4-Acetamidopiperidin-1-yl)methyl)benzamido)-5-(piperidin-1-yl)phenyl)-N-(3-(trifluoromethyl)benzyl)isonicotinamide]"
